Patent publication US9708314B2, “Heterocyclic amide compound” (NISSAN CHEMICAL INDUSTRIES, LTD., priority 2013, dated 2017)

Experiments:
Assay type in all cases: in vivo
[1] = test system: transplanted Oryza sativa; assay: Test Example 1: effect on crop, application before weed generation in submerged conditions; conditions: Application herbicide amount 320 g/ha; Seventeenth Table
Procedure, shortened: (§1)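 Water-diluted emulsion formulation is applied onto flood water (4 cm deep) covering alluvial soil on the day weed seeds are sown, after transplanting 2.5 leaf stage rice. Rates are expressed per hectare. Injury or control is graded 0–5 three weeks later.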

Veronica persica = assay: Test Example 4: herbicidal effect by application to foliage (diluvial soil, plastic box); conditions: for R: Application herbicide amount 320 g/ha
Procedure, shortened: (§2)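 Greenhouse plants (25° C. to 30° C., 14 d, diluvial soil) receive a foliar spray of water-diluted emulsifiable formulation at defined g/ha. Grading after 3 weeks uses a six-step herbicidal-ratio scale, with 4 covering 70% to <90% and 1 covering 5% to <20%.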

Alopecurus myosuroides = assay: as above; conditions: for J: Application herbicide amount 320 g/ha
Procedure, shortened: as §2

Apera spica-venti. = assay: as above; conditions: for L: Application herbicide amount 320 g/ha
Procedure, shortened: as §2

Avena fatua = assay: as above; conditions: for I: Application herbicide amount 320 g/ha
Procedure, shortened: as §2

Chenopodium album = assay: as above; conditions: for O: Application herbicide amount 320 g/ha
Procedure, shortened: as §2

Setaria viridis = assay: as above; conditions: for G: Application herbicide amount 320 g/ha
Procedure, shortened: as §2

Lolium multiflorum Lam. = assay: as above; conditions: for K: Application herbicide amount 320 g/ha
Procedure, shortened: as §2

Abutilon theophrasti = assay: as above; conditions: for M: Application herbicide amount 320 g/ha
Procedure, shortened: as §2

Digitaria ciliaris = assay: as above; conditions: for F: Application herbicide amount 320 g/ha
Procedure, shortened: as §2

[2] = test system: Echinochloa crus-galli var. crus-galli; assay: as above; conditions: for H: Application herbicide amount 320 g/ha
Procedure, shortened: as §2

Galium spurium = assay: as above; conditions: for Q: Application herbicide amount 320 g/ha
Procedure, shortened: as §2

Scirpus juncoides = assay: Test Example 1: herbicidal activity, application before weed generation in submerged conditions; conditions: Application herbicide amount 320 g/ha; Seventeenth Table
Procedure, shortened: as §1

[3] = test system: Echinochloa oryzacola Vasing.; assay: as above; conditions: Application herbicide amount 320 g/ha; Seventeenth Table
Procedure, shortened: as §1

Monochoria vaginalis = assay: as above; conditions: Application herbicide amount 320 g/ha; Seventeenth Table
Procedure, shortened: as §1

[4] = application to foliage, application herbicide amount 320 g/ha

| Compound | a: transplanted Oryza sativa (effect on crop grade) [1] | B: Scirpus juncoides (herbicidal effect grade) (Scirpus juncoides) | A: Echinochloa oryzicola Vasing. (herbicidal effect grade) [3] | C: Monochoria vaginalis (herbicidal effect grade) (Monochoria vaginalis) | R (Veronica persica) | J (Alopecurus myosuroides) | L (Apera spica-venti.) | I (Avena fatua) | O (Chenopodium album) | G (Setaria viridis) | K (Lolium multiflorum Lam.) | M (Abutilon theophrasti) | F (Digitaria ciliaris) | H [2] | Q (Galium spurium) | also measured |
| --- | --- | --- | --- | --- | --- | --- | --- | --- | --- | --- | --- | --- | --- | --- | --- | --- |
| Cc1nnc(NC(=O)c2ccc(C(F)F)n3c(C(C)C)nnc23)o1 [1-053] | 0 (Herbicidal ratio of 5% or less (almost no effect)) | 3 (Herbicidal ratio of 40% or more and less than 70%) | 2 (Herbicidal ratio of 20% or more and less than 40%) | 2 (Herbicidal ratio of 20% or more and less than 40%) | – | – | – | – | – | – | – | – | – | – | – | R (Veronica persica) herbicidal effect (Veronica persica; [4]): 4 (Herbicidal ratio of 70% or more and less than 90%); J (Alopecurus myosuroides) herbicidal effect (Alopecurus myosuroides; [4]): 0 (Herbicidal ratio of 5% or less (almost no effect)); L (Apera spica-venti.) herbicidal effect (Apera spica-venti.; [4]): 0 (Herbicidal ratio of 5% or less (almost no effect)); I (Avena fatua) herbicidal effect (Avena fatua; [4]): 1 (Herbicidal ratio of 5% or more and less than 20%); O (Chenopodium album) herbicidal effect (Chenopodium album; [4]): 5 (Herbicidal ratio of 90% or more (almost completely withered)); G (Setaria viridis) herbicidal effect (Setaria viridis; [4]): 2 (Herbicidal ratio of 20% or more and less than 40%); K (Lolium multiflorum Lam.) herbicidal effect (Lolium multiflorum Lam.; [4]): 0 (Herbicidal ratio of 5% or less (almost no effect)); M (Abutilon theophrasti) herbicidal effect (Abutilon theophrasti; [4]): 4 (Herbicidal ratio of 70% or more and less than 90%); F (Digitaria ciliaris) herbicidal effect (Digitaria ciliaris; [4]): 3 (Herbicidal ratio of 40% or more and less than 70%); H (Echinochloa crus-galli var. crus-galli) herbicidal effect [2, 4]: 3 (Herbicidal ratio of 40% or more and less than 70%); Q (Galium spurium) herbicidal effect (Galium spurium; [4]): 2 (Herbicidal ratio of 20% or more and less than 40%) |
| Cc1nnc(NC(=O)c2ccc(C(F)(F)F)n3c(-c4ccc(Cl)nc4)nnc23)o1 [1-054] | 2 (Herbicidal ratio of 20% or more and less than 40%) | 3 (Herbicidal ratio of 40% or more and less than 70%) | 5 (Herbicidal ratio of 90% or more (almost completely withered)) | 4 (Herbicidal ratio of 70% or more and less than 90%) | 5 (Herbicidal ratio of 90% or more (almost completely withered)) | 3 (Herbicidal ratio of 40% or more and less than 70%) | 3 (Herbicidal ratio of 40% or more and less than 70%) | 3 (Herbicidal ratio of 40% or more and less than 70%) | 5 (Herbicidal ratio of 90% or more (almost completely withered)) | 4 (Herbicidal ratio of 70% or more and less than 90%) | 3 (Herbicidal ratio of 40% or more and less than 70%) | 5 (Herbicidal ratio of 90% or more (almost completely withered)) | 5 (Herbicidal ratio of 90% or more (almost completely withered)) | 5 (Herbicidal ratio of 90% or more (almost completely withered)) | 4 (Herbicidal ratio of 70% or more and less than 90%) | – |
| Cc1nnc(NC(=O)c2ccc(C(F)(F)F)n3c(-c4cccc(Cl)n4)nnc23)o1 [1-055] | 1 (Herbicidal ratio of 5% or more and less than 20%) | 4 (Herbicidal ratio of 70% or more and less than 90%) | 4 (Herbicidal ratio of 70% or more and less than 90%) | 4 (Herbicidal ratio of 70% or more and less than 90%) | 4 (Herbicidal ratio of 70% or more and less than 90%) | 3 (Herbicidal ratio of 40% or more and less than 70%) | 3 (Herbicidal ratio of 40% or more and less than 70%) | 1 (Herbicidal ratio of 5% or more and less than 20%) | 5 (Herbicidal ratio of 90% or more (almost completely withered)) | 3 (Herbicidal ratio of 40% or more and less than 70%) | 2 (Herbicidal ratio of 20% or more and less than 40%) | 5 (Herbicidal ratio of 90% or more (almost completely withered)) | 4 (Herbicidal ratio of 70% or more and less than 90%) | 4 (Herbicidal ratio of 70% or more and less than 90%) | 2 (Herbicidal ratio of 20% or more and less than 40%) | – |
| Cc1cc(-c2nnc3c(C(=O)Nc4nnc(C)o4)ccc(C(F)(F)F)n23)n(C)n1 [1-056] | 3 (Herbicidal ratio of 40% or more and less than 70%) | 5 (Herbicidal ratio of 90% or more (almost completely withered)) | 5 (Herbicidal ratio of 90% or more (almost completely withered)) | 4 (Herbicidal ratio of 70% or more and less than 90%) | 5 (Herbicidal ratio of 90% or more (almost completely withered)) | 2 (Herbicidal ratio of 20% or more and less than 40%) | 3 (Herbicidal ratio of 40% or more and less than 70%) | 3 (Herbicidal ratio of 40% or more and less than 70%) | 5 (Herbicidal ratio of 90% or more (almost completely withered)) | 5 (Herbicidal ratio of 90% or more (almost completely withered)) | 2 (Herbicidal ratio of 20% or more and less than 40%) | 5 (Herbicidal ratio of 90% or more (almost completely withered)) | 5 (Herbicidal ratio of 90% or more (almost completely withered)) | 5 (Herbicidal ratio of 90% or more (almost completely withered)) | 4 (Herbicidal ratio of 70% or more and less than 90%) | – |
| Cc1nnc(NC(=O)c2ccc(C(F)(F)F)n3c(-c4cccs4)nnc23)o1 [1-057] | 2 (Herbicidal ratio of 20% or more and less than 40%) | 5 (Herbicidal ratio of 90% or more (almost completely withered)) | 5 (Herbicidal ratio of 90% or more (almost completely withered)) | 4 (Herbicidal ratio of 70% or more and less than 90%) | 5 (Herbicidal ratio of 90% or more (almost completely withered)) | 2 (Herbicidal ratio of 20% or more and less than 40%) | 2 (Herbicidal ratio of 20% or more and less than 40%) | 3 (Herbicidal ratio of 40% or more and less than 70%) | 5 (Herbicidal ratio of 90% or more (almost completely withered)) | 4 (Herbicidal ratio of 70% or more and less than 90%) | 2 (Herbicidal ratio of 20% or more and less than 40%) | 5 (Herbicidal ratio of 90% or more (almost completely withered)) | 4 (Herbicidal ratio of 70% or more and less than 90%) | 4 (Herbicidal ratio of 70% or more and less than 90%) | 1 (Herbicidal ratio of 5% or more and less than 20%) | – |
| Cc1nnc(NC(=O)c2ccc(C(F)(F)F)n3c(-c4cncs4)nnc23)o1 [1-058] | 4 (Herbicidal ratio of 70% or more and less than 90%) | 5 (Herbicidal ratio of 90% or more (almost completely withered)) | 5 (Herbicidal ratio of 90% or more (almost completely withered)) | 4 (Herbicidal ratio of 70% or more and less than 90%) | 5 (Herbicidal ratio of 90% or more (almost completely withered)) | 3 (Herbicidal ratio of 40% or more and less than 70%) | 2 (Herbicidal ratio of 20% or more and less than 40%) | 3 (Herbicidal ratio of 40% or more and less than 70%) | 5 (Herbicidal ratio of 90% or more (almost completely withered)) | 5 (Herbicidal ratio of 90% or more (almost completely withered)) | 3 (Herbicidal ratio of 40% or more and less than 70%) | 5 (Herbicidal ratio of 90% or more (almost completely withered)) | 5 (Herbicidal ratio of 90% or more (almost completely withered)) | 5 (Herbicidal ratio of 90% or more (almost completely withered)) | 2 (Herbicidal ratio of 20% or more and less than 40%) | – |
| C#CCSc1nnc2c(C(=O)Nc3nnc(C)o3)ccc(C(F)(F)F)n12 [1-065] | 0 (Herbicidal ratio of 5% or less (almost no effect)) | 3 (Herbicidal ratio of 40% or more and less than 70%) | 5 (Herbicidal ratio of 90% or more (almost completely withered)) | 2 (Herbicidal ratio of 20% or more and less than 40%) | 3 (Herbicidal ratio of 40% or more and less than 70%) | 0 (Herbicidal ratio of 5% or less (almost no effect)) | 0 (Herbicidal ratio of 5% or less (almost no effect)) | 1 (Herbicidal ratio of 5% or more and less than 20%) | 5 (Herbicidal ratio of 90% or more (almost completely withered)) | 1 (Herbicidal ratio of 5% or more and less than 20%) | 0 (Herbicidal ratio of 5% or less (almost no effect)) | 3 (Herbicidal ratio of 40% or more and less than 70%) | 4 (Herbicidal ratio of 70% or more and less than 90%) | 1 (Herbicidal ratio of 5% or more and less than 20%) | 0 (Herbicidal ratio of 5% or less (almost no effect)) | – |
